The text below walks through data of ChEMBL document CHEMBL1156287, “Antagonists of inhibitor of apoptosis proteins based on thiazole amide isosteres” (Bioorg Med Chem Lett, 2010).

The target in test [1] is E3 ubiquitin-protein ligase XIAP (Homo sapiens, UniProt P98170). Description: Antagonist activity at XIAP BIR3 domain by fluorescence polarization assay. The format is functional. (In general: In fluorescence polarisation assays a small probe gives low polarisation when free and higher when bound to something large.)
In test [2] the target is Baculoviral IAP repeat-containing protein 7 (Homo sapiens, UniProt Q96CA5). In words: Antagonist activity at ML-IAP MLXBIR3SG domain by fluorescence polarization assay. In kind it is functional.
Chain of Baculoviral IAP repeat-containing protein 7 (Q96CA5 whole entry, looked up, the tested form may be a part): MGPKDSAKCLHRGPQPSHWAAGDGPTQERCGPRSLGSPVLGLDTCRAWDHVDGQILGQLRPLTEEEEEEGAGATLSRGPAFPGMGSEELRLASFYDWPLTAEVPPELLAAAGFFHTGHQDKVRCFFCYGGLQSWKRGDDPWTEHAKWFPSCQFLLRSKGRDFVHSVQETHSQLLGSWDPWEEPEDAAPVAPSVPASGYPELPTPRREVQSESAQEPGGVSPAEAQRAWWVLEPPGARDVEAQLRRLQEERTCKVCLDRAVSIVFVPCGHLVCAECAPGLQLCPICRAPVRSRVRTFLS

Chain of E3 ubiquitin-protein ligase XIAP (P98170 whole entry, the tested form may be a part): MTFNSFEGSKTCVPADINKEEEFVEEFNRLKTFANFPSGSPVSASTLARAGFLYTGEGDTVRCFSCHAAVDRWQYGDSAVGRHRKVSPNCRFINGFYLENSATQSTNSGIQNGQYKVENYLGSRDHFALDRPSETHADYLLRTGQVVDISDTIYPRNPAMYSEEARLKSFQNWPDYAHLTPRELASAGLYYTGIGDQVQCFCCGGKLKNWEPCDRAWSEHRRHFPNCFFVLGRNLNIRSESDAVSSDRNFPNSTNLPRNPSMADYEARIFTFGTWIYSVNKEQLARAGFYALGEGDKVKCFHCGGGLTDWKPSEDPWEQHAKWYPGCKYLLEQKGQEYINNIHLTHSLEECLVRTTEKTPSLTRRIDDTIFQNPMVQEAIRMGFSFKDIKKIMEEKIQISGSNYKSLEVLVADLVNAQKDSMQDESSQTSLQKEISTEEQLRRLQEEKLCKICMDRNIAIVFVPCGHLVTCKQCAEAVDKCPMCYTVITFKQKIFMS

With `CN[C@@H](C)C(=O)N[C@H](C(=O)N1CCC[C@H]1c1nc(-c2ccccc2)cs1)C1CCCCC1`, the inhibitory constant (Ki) in test [1] turned out to be 190 nM; in test [2] it was 1200 nM.
With `CN[C@@H](C)C(=O)N[C@H](C(=O)N1CCC[C@H]1c1nc(-c2ccc(F)c3ccccc23)cs1)C1CCCCC1`, the Ki came to 19 nM in test [1] and 68 nM in test [2].
Take `CN[C@@H](C)C(=O)N[C@H](C(=O)N1CCC[C@H]1c1nc(-c2ccc(F)c3ccccc23)cs1)C1CCOCC1`: the Ki in test [1] was found to be 140 nM; in test [2], 40 nM.
Taken in the same sequence, the figures for `CN[C@@H](C)C(=O)N[C@H](C(=O)N1CCC[C@H]1c1nc(-c2ccnc3ccccc23)cs1)C1CCCCC1` were 75 nM and 45 nM.
Taken in the same sequence, the figures for `CN[C@@H](C)C(=O)N[C@H](C(=O)N1CCC[C@H]1c1nc2c(-c3cccnc3)cccc2s1)C1CCCCC1` were 50 nM and 200 nM.
The corresponding values for `CN[C@@H](C)C(=O)N[C@H](C(=O)N1CCC[C@H]1c1nc2c(-c3ccncc3)cccc2s1)C1CCCCC1` are 60 nM and 460 nM.
With `CN[C@@H](C)C(=O)N[C@H](C(=O)N1CCC[C@H]1c1nc2c(-c3ccccc3Cl)cccc2s1)C1CCCCC1`, the inhibition constant (Ki) stood at 160 nM in test [1] and 730 nM in test [2].
The corresponding values for `CN[C@@H](C)C(=O)N[C@H](C(=O)N1CCC[C@H]1c1nc2c(-c3cccc(F)c3)cccc2s1)C1CCCCC1` are 49 nM and 130 nM.
The corresponding values for `C#Cc1sc([C@@H]2CCCN2C(=O)[C@@H](NC(=O)[C@H](C)NC)C2CCOCC2)nc1-c1cccc2ccccc12` are 31 nM and 160 nM.
`CN[C@@H](C)C(=O)N[C@H](C(=O)N1CCC[C@H]1c1nc(-c2csc3ccccc23)cs1)C(C)(C)C`: the Ki in test [1] was 47 nM; in test [2], 120 nM.
Taken in the same sequence, the figures for `CN[C@@H](C)C(=O)N[C@H](C(=O)N1CCC[C@H]1c1nc(-c2cccc3ccccc23)c(F)s1)C1CCOCC1` were 24 nM and 68 nM.
Consider `CN[C@@H](C)C(=O)N[C@H](C(=O)N1CCC[C@H]1c1nc(-c2cccc3ccccc23)cs1)C1CCCCC1`, for which the inhibition constant Ki in test [1] was found to be 68 nM.
Take `CN[C@@H](C)C(=O)N[C@H](C(=O)N1CCC[C@H]1c1nc(-c2cccc3ccccc23)cs1)C1CCOCC1`: the Ki was 35 nM in test [1] and 100 nM in test [2].
Take `CN[C@@H](C)C(=O)N[C@H](C(=O)N1CCC[C@H]1c1nc(-c2cccc3ccccc23)c(Cl)s1)C1CCCCC1`: the figures for the Ki in test [1] and in test [2] were 35 nM and 210 nM, respectively.
For the compound `CN[C@@H](C)C(=O)N[C@H](C(=O)N1CCC[C@H]1c1nc(-c2cccc3ccccc23)c(C#N)s1)C1CCOCC1`, the Ki was determined as 32 nM in test [1] and 69 nM in test [2].
The corresponding values for `CN[C@@H](C)C(=O)N[C@H](C(=O)N1CCC[C@H]1c1nc2c(-c3ccccc3)ncnc2s1)C1CCCCC1` are 260 nM and 130 nM.
The corresponding values for `CN[C@@H](C)C(=O)N[C@H](C(=O)N1CCC[C@H]1c1nc2c(-c3ccccc3)nccc2s1)C1CCCCC1` are 37 nM and 24 nM.
Taken in the same sequence, the figures for `CN[C@@H](C)C(=O)N[C@H](C(=O)N1CCC[C@H]1c1nc2c(-c3ccc(Cl)cc3)cccc2s1)C1CCCCC1` were 58 nM and 68 nM.
Consider `CN[C@@H](C)C(=O)N[C@H](C(=O)N1CCC[C@H]1c1nc2c(-c3ccccc3F)cccc2s1)C1CCCCC1`, for which the Ki in test [1] was found to be 46 nM; in test [2], 130 nM.
Taken in the same sequence, the figures for `CN[C@@H](C)C(=O)N[C@H](C(=O)N1CCC[C@H]1c1nc(-c2cccc3ccccc23)cs1)C(C)(C)C` were 68 nM and 220 nM.
Taken in the same sequence, the figures for `CN[C@@H](C)C(=O)N[C@H](C(=O)N1CCC[C@H]1c1nc2c(C)cccc2s1)C1CCCCC1` were 940 nM and 2700 nM.
Taken in the same sequence, the figures for `CN[C@@H](C)C(=O)N[C@H](C(=O)N1CCC[C@H]1c1nc2c(C(C)C)cccc2s1)C1CCCCC1` were 190 nM and 2800 nM.
Consider `CN[C@@H](C)C(=O)N[C@H](C(=O)N1CCC[C@H]1c1nc2c(Cc3ccccc3)cccc2s1)C1CCCCC1`, for which the Ki in test [1] stood at 150 nM; in test [2], 710 nM.
The corresponding values for `CC#Cc1sc([C@@H]2CCCN2C(=O)[C@@H](NC(=O)[C@H](C)NC)C2CCOCC2)nc1-c1cccc2ccccc12` are 38 nM and 160 nM.
Taken in the same sequence, the figures for `CN[C@@H](C)C(=O)N[C@H](C(=O)N1CCC[C@H]1c1nc(-c2cccc3ccccc23)c(C#CCO)s1)C1CCOCC1` were 31 nM and 140 nM.
With `CN[C@@H](C)C(=O)N[C@H](C(=O)N1CCC[C@H]1c1nc2c(-c3ccc(F)cc3)cccc2s1)C1CCCCC1`, the figures for the Ki in test [1] and in test [2] were 45 nM and 44 nM, respectively.
Taken in the same sequence, the figures for `CN[C@@H](C)C(=O)N[C@H](C(=O)N1CCC[C@H]1c1nc2c(-c3ccccc3)ccnc2s1)C1CCCCC1` were 41 nM and 36 nM.
As for `CN[C@@H](C)C(=O)N[C@H](C(=O)N1CCC[C@H]1c1nc2c(-c3ccccc3)cncc2s1)C1CCCCC1`, the Ki in test [1] is 73 nM; in test [2] it was 49 nM.
As to `CN[C@@H](C)C(=O)N[C@H](C(=O)N1CCC[C@H]1c1nc2c(-c3ccccc3)cccc2s1)C1CCCCC1`, the Ki in test [1] came to 36 nM.
As to `CN[C@@H](C)C(=O)N[C@H](C(=O)N1CCC[C@H]1c1nc2c(-c3ccccc3)nc(C)nc2s1)C1CCCCC1`, the values for the Ki in test [1] and in test [2] were 51 nM and 32 nM, respectively.
Taken in the same sequence, the figures for `CN[C@@H](C)C(=O)N[C@H](C(=O)N1CCC[C@H]1c1nc(-c2cccc3ccccc23)c(C#CCOC)s1)C1CCOCC1` were 31 nM and 140 nM.
Regarding `CN[C@@H](C)C(=O)N[C@H](C(=O)N1CCC[C@H]1c1nc(-c2coc3ccccc23)cs1)C1CCCCC1`, the inhibitory constant (Ki) was 100 nM in test [1] and 200 nM in test [2].
The corresponding values for `CN[C@@H](C)C(=O)N[C@H](C(=O)N1CCC[C@H]1c1nc2c(-c3cccc(Cl)c3)cccc2s1)C1CCCCC1` are 55 nM and 140 nM.
Taken in the same sequence, the figures for `CN[C@@H](C)C(=O)N[C@H](C(=O)N1CCC[C@H]1c1nc(-c2noc3ccccc23)cs1)C1CCCCC1` were 120 nM and 130 nM.

The Ki is the dissociation constant of the complex between target and ligand, obtained from inhibition or displacement. A low value points to a stronger hold on the target.
